From US20240109853A1 (Shanghai Yao Yuan Biotechnology Co., Ltd., priority 2020, published 2024)

Columns and labels:
ALPK1 = ALPK1 (Homo sapiens (Human), UniProt Q96QP1); assay: ALPK1 in vitro kinase assay (HTRF of TIFA phosphorylation); assay type: biochemical
[1] = tested on: ALPK1-dependent NFκB reporter gene activation in HEK293 cells stably expressing an NF-kB reporter (G9 cells); assay: NFκB gene reporter alkaline phosphatase assay; assay type: cell-based; conditions: Homo sapiens, HEK293; read-out: NFkB assay IC50
Method in brief: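 HEK293 G9 cells carrying an NF-κB-driven alkaline phosphatase reporter, pretreated 30 min with serially diluted compound, then stimulated with D-glycero-D-manno-6-fluoro-heptose-1β-S-ADP. Reporter activity read with chromogenic pNPP substrate; IC50 from four-parameter logistic fit.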

ALPK1, sequence (Q96QP1 whole entry): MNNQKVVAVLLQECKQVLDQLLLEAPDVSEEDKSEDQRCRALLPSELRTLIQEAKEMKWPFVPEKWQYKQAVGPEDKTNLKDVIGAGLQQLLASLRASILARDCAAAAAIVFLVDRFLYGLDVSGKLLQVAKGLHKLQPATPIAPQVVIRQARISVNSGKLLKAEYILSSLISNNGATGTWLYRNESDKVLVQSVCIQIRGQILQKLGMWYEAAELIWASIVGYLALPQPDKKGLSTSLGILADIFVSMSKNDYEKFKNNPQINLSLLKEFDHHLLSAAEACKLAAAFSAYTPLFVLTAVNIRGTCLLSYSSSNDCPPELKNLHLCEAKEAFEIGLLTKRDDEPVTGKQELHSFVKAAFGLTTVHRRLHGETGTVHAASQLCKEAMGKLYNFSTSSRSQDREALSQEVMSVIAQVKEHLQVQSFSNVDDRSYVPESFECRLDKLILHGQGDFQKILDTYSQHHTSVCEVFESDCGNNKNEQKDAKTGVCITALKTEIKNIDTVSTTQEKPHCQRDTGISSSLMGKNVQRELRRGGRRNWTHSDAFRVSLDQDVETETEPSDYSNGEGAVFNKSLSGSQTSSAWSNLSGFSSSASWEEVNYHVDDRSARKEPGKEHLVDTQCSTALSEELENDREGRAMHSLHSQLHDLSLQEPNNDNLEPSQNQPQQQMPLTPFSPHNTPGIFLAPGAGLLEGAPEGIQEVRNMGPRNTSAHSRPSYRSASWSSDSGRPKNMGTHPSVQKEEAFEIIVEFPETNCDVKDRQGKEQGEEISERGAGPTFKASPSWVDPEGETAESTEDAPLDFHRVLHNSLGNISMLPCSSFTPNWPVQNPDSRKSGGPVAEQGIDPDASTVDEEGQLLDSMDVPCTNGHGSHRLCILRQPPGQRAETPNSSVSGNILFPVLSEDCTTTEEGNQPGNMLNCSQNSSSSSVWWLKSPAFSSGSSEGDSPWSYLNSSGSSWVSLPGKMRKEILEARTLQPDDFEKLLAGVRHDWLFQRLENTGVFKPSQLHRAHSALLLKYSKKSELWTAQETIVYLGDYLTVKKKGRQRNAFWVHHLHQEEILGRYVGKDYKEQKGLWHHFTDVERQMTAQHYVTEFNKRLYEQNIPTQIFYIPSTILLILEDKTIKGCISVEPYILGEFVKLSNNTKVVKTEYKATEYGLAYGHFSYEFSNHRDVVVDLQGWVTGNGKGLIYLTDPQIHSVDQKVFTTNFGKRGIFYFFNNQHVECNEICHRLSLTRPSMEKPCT

Row | SMILES | IC50 (ALPK1) [nM] | IC50 [1] [nM]
1 | CC(C)(c1ccc(Br)cc1)c1csc(NC(=O)NCc2ccc(N3CCNCC3)c(C(N)=O)c2)n1 [Example A052, 5-((3-(4-(2-(4-bromophenyl)propan-2-yl)thiazol-2-yl)ureido)methyl)-2-(piperazin-1-yl)benzamide] | 24 | 1960
2 | COc1ccc(C(C)(C)c2csc(NC(=O)NCc3ccc(N4CCNCC4)cc3)n2)cc1 [Example A053, 1-(4-(2-(4-methoxyphenyl)propan-2-yl)thiazol-2-yl)-3-(4-(piperazin-1-yl)benzyl)urea] | 43 | 760
3 | COc1ccc(C(C)(C)c2csc(NC(=O)NCc3ccc(N4CCNCC4)c(F)c3)n2)cc1 [Example A054, 1-(3-fluoro-4-(piperazin-1-yl)benzyl)-3-(4-(2-(4-methoxyphenyl)propan-2-yl)thiazol-2-yl)urea] | 30 | 880
4 | COCCOc1cc(CNC(=O)Nc2nc(C(C)(C)c3ccc(Br)cc3)cs2)ccc1N1CCNCC1 [Example A055, 1-(4-(2-(4-bromophenyl)propan-2-yl)thiazol-2-yl)-3-(3-(2-methoxyethoxy)-4-(piperazin-1-yl)benzyl)urea] | 182 | 4700
5 | CC(O)(c1ccc(Br)cc1)c1csc(NC(=O)NCc2ccc(N3CCNCC3)c(F)c2)n1 (stereo not shown) [Example A056, 1-(4-(1-(4-bromophenyl)-1-hydroxyethyl)thiazol-2-yl)-3-(3-fluoro-4-(piperazin-1-yl)benzyl)urea] | 176 | 1060
6 | COc1ccc(C(C)(C)c2csc(NC(=O)NCc3ccc(N4CCNCC4)c(CO)c3)n2)cc1 [Example A058, 1-(3-(hydroxymethyl)-4-(piperazin-1-yl)benzyl)-3-(4-(2-(4-methoxyphenyl)propan-2-yl)thiazol-2-yl)urea] | 130 | 3100
7 | COc1ccc(C(C)(C)c2csc(NC(=O)NCc3ccc(N4CCNCC4)c(C(N)=O)c3)n2)cc1 [Example A060, 5-((3-(4-(2-(4-methoxyphenyl)propan-2-yl)thiazol-2-yl)ureido)methyl)-2-(piperazin-1-yl)benzamide] | 8 | 4800
8 | CC(C)(c1ccc(Br)cc1)c1csc(NC(=O)NCCCN)n1 [Example A061, 1-(3-aminopropyl)-3-(4-(2-(4-bromophenyl)propan-2-yl)thiazol-2-yl)urea] | 195 | 1990
9 | COc1ccc(C(C)(C)c2csc(NC(=O)NCc3ccc(N4CC5CC4CN5)cc3)n2)cc1 (stereo not shown) [Example A062, 1-(4-(2,5-diazabicyclo[2.2.1]heptan-2-yl)benzyl)-3-(4-(2-(4-methoxyphenyl)propan-2-yl)thiazol-2-yl)urea] | 60 | 1330
10 | COc1ccc(C(C)(C)c2csc(NC(=O)NCc3ccc(N4CCNC(C)C4)c(C(N)=O)c3)n2)cc1 (stereo not shown) [Example A063, 5-((3-(4-(2-(4-methoxyphenyl)propan-2-yl)thiazol-2-yl)ureido)methyl)-2-(3-methylpiperazin-1-yl)benzamide] | 29 | 2910
11 | COc1ccc(C(C)(C)c2csc(NC(=O)NCc3ccc(N4CC5CC4CN5)c(C(N)=O)c3)n2)cc1 (stereo not shown) [Example A064, 2-(2,5-diazabicyclo[2.2.1]heptan-2-yl)-5-((3-(4-(2-(4-methoxyphenyl)propan-2-yl)thiazol-2-yl)ureido)methyl)benza-mide] | 41 | 19700
12 | CNC(=O)c1cc(CNC(=O)Nc2nc(C(C)(C)c3ccc(OC)cc3)cs2)ccc1N1CCNCC1 [Example A065, 5-((3-(4-(2-(4-methoxyphenyl)propan-2-yl)thiazol-2-yl)ureido)methyl)-N-methyl-2-(piperazin-1-yl)benzamide] | 30 | 4440
13 | CC(C)(c1ccc(Br)cc1)c1csc(NC(=O)NCCS(C)(=O)=O)n1 [Example A066, 1-(4-(2-(4-bromophenyl)propan-2-yl)thiazol-2-yl)-3-(2-(methylsulfonyl)ethyl)urea] | 126 | 10500
14 | CC(C)(c1ccc(I)cc1)c1csc(NC(=O)NCc2ccc(N3CCNCC3)cc2)n1 [Example A067, 1-(4-(2-(4-iodophenyl)propan-2-yl)thiazol-2-yl)-3-(4-(piperazin-1-yl)benzyl)urea] | 28 | 1110
15 | COc1ccc(C(C)(C)c2csc(NC(=O)NCCCC(=O)NC3CCN(C)CC3)n2)cc1 [Example A070, 4-(3-(4-(2-(4-methoxyphenyl)propan-2-yl)thiazol-2-yl)ureido)-N-(1-methylpiperidin-4-yl)butanamide] | 140 | 16900
16 | COc1ccc(C(C)(C)c2csc(NC(=O)NCCOCCN3CCC(N)C3)n2)cc1 (stereo not shown) [Example A072, 1-(2-(2-(3-aminopyrrolidin-1-yl)ethoxy)ethyl)-3-(4-(2-(4-methoxyphenyl)propan-2-yl)thiazol-2-yl)urea] | 143 | 1450

Row | SMILES | IC50 (ALPK1) [nM] | IC50 [1] [nM]
17 | CC(NC(=O)Nc1nc(C(C)(C)c2ccc(Br)cc2)cs1)c1ccc(N2CCNCC2)cc1 (stereo not shown) [Example A073, 1-(4-(2-(4-bromophenyl)propan-2-yl)thiazol-2-yl)-3-(1-(4-(piperazin-1-yl)phenyl)ethyl)urea] | 85 | 2790
18 | Cc1ccc(C(C)(C)c2csc(NC(=O)NCc3ccc(N4CCNCC4)cc3)n2)cc1 [Example A075, 1-(4-(piperazin-1-yl)benzyl)-3-(4-(2-(p-tolyl)propan-2-yl)thiazol-2-yl)urea] | 25 | 267
19 | CCC(C)(c1ccc(OC)cc1)c1csc(NC(=O)NC(C)c2ccc(N3CCNCC3)cc2)n1 (stereo not shown) [Example A076, 1-(4-(2-(4-methoxyphenyl)butan-2-yl)thiazol-2-yl)-3-(1-(4-(piperazin-1-yl)phenyl)ethyl)urea] | 147 | 4480
20 | COc1ccc(C(C)(C)c2csc(NC(=O)NCCCCN3CCC(N)C3)n2)cc1 (stereo not shown) [Example A077, 1-(4-(3-aminopyrrolidin-1-yl)butyl)-3-(4-(2-(4-methoxyphenyl)propan-2-yl)thiazol-2-yl)urea] | 180 | 2970
21 | CC(C)(c1ccc(Br)cc1)c1csc(NC(=O)NCc2cnc(N3CCC(O)C3)nc2)n1 (stereo not shown) [Example A079, 1-(4-(2-(4-bromophenyl)propan-2-yl)thiazol-2-yl)-3-((2-(3-hydroxypyrrolidin-1-yl)pyrimidin-5-yl)methyl)urea] | 170 | 1680
22 | COc1ncc(CNC(=O)Nc2nc(C(C)(C)c3ccc(Br)cc3)cs2)cn1 [Example A080, 1-(4-(2-(4-bromophenyl)propan-2-yl)thiazol-2-yl)-3-((2-methoxypyrimidin-5-yl)methyl)urea] | 172 | 13300
23 | CC(C)(c1ccc(Br)cc1)c1csc(NC(=O)NCc2cnc(NCCN)nc2)n1 [Example A081, 1-((2-((2-aminoethyl)amino)pyri-midin-5-yl)methyl)-3-(4-(2-(4-bromophenyl)propan-2-yl)thiazol-2-yl)urea] | 17 | 1840
24 | CC(C)(c1ccc(Br)cc1)c1csc(NC(=O)NCc2cnc(N3CCC(O)CC3)nc2)n1 [Example A082, 1-(4-(2-(4-bromophenyl)propan-2-yl)thiazol-2-yl)-3-((2-(4-hydroxypiperidin-1-yl)pyrimidin-5-yl)methyl)urea] | 125 | 6150
25 | COc1ccc(C(C)(C)c2csc(NC(=O)NCc3cnc(N4CCC(O)C4)nc3)n2)cc1 (stereo not shown) [Example A083, 1-((2-(3-hydroxypyrrolidin-1-yl)pyrimidin-5-yl)methyl)-3-(4-(2-(4-methoxyphenyl)propan-2-yl)thiazol-2-yl)urea] | 111 | 680
26 | CC(C)(c1ccc(Cl)cc1)c1csc(NC(=O)NCc2cnc(N3CCNCC3)nc2)n1 [Example A084, 1-(4-(2-(4-chlorophenyl)propan-2-yl)thiazol-2-yl)-3-((2-(piperazin-1-yl)pyrimidin-5-yl)methyl)urea] | 22 | 340
27 | CC(C)(c1ccc(F)cc1)c1csc(NC(=O)NCc2cnc(N3CCNCC3)nc2)n1 [Example A085, 1-(4-(2-(4-fluorophenyl)propan-2-yl)thiazol-2-yl)-3-((2-(piperazin-1-yl)pyrimidin-5-yl)methyl)urea] | 85 | 490
28 | COc1ccc(C(C)(C)c2csc(NC(=O)NCc3cnc(N4CCNCC4)nc3)n2)cc1 [Example A086, 1-(4-(2-(4-methoxyphenyl)propan-2-yl)thiazol-2-yl)-3-((2-(piperazin-1-yl)pyrimidin-5-yl)methyl)urea] | 16 | 390
29 | CCOc1ccc(C(C)(C)c2csc(NC(=O)NCc3cnc(N4CCNCC4)nc3)n2)cc1 [Example A087, 1-(4-(2-(4-ethoxyphenyl)propan-2-yl)thiazol-2-yl)-3-((2-(piperazin-1-yl)pyrimidin-5-yl)methyl)urea] | 89 | 1740
30 | CC(C)(c1ccc(Br)cc1)c1csc(NC(=O)NCc2cnc(N3CCNCC3)nc2)n1 [Example A088, 1-(4-(2-(4-bromophenyl)propan-2-yl)thiazol-2-yl)-3-((2-(piperazin-1-yl)pyrimidin-5-yl)methyl)urea compound with methane (1:1)] | 13 | 1450
31 | Cc1nc(N2CCNCC2)ncc1CNC(=O)Nc1nc(C(C)(C)c2ccc(Br)cc2)cs1 [Example A089, 1-(4-(2-(4-bromophenyl)propan-2-yl)thiazol-2-yl)-3-((4-methyl-2-(piperazin-1-yl)pyrimidin-5-yl)methyl)urea] | 26 | 1190
32 | CC(C)(c1ccc(Br)cc1)c1csc(NC(=O)NCc2ccnc(N3CCNCC3)n2)n1 [Example A090, 1-(4-(2-(4-bromophenyl)propan-2-yl)thiazol-2-yl)-3-((2-(piperazin-1-yl)pyrimidin-4-yl)methyl)urea] | 178 | 1110
